For 12 molecules, TGI and GI50 results are on record in PubChem BioAssay (NCI).

Among the test systems are SF-295 CNS; ACHN renal; UACC-257 melanoma; A549 NSCLC; MDA-MB-435; UACC-62 melanoma; SK-MEL-28 melanoma; A498 renal; COLO 205 colon; SR leukemia.
Common to all, as to test: NCI-60 cell line screen, 48 h

The structures appear in SMILES notation. “And” between values parts separate entries of the source, which are not always exact repeats. Identical values can stand only once.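 Protocol summary: plate cells (96-well), add compound at 5 concentrations, incubate 48 h, interpolate endpoints linearly. Abbreviation: GI50, concentration required for 50% inhibition of growth. TGI: total growth inhibition.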

On to `CO[C@H]1C[C@H](O[C@H]2CC[C@@]3(C)[C@H](CC[C@@H]4[C@@H]3CC[C@]3(C)[C@@H](C5=CC(=O)OC5)CC[C@]43O)C2)O[C@H](C)[C@H]1O`, for which the TGI with SF-295 CNS is 0.0555 µM; in the experiment on ACHN renal, 0.0101 µM; in the experiment on UACC-257 melanoma, 0.215 µM; in the experiment on A549 NSCLC, less than 0.0118 µM; in the experiment on MDA-MB-435, 0.0974 µM; in the experiment on UACC-62 melanoma, 0.031 µM. For the same molecule, the TGI in the experiment on SK-MEL-28 melanoma amounted to 0.137 µM; with A498 renal it was 0.0589 µM; with COLO 205 colon it was 0.235 µM.

Regarding `COc1cc2c3c(c4cc(OC)c(OC)cc4c2cc1OC)CN1CCC[C@H]1C3`, the GI50 is 0.0357 µM and 0.01 µM in the experiment on SF-295 CNS; 0.0298 µM and < 0.0147 µM with MDA-MB-435; 0.0667 µM and 0.0102 µM in the experiment on SR leukemia; 0.0592 µM and < 0.01 µM in the experiment on COLO 205 colon. Further, the TGI is 2.37 µM and 0.393 µM in the experiment with ACHN renal; 0.338 µM and 0.937 µM with UACC-257 melanoma; 0.142 µM in the experiment on A549 NSCLC; 0.494 µM and 1.29 µM in the experiment on MDA-MB-435; 0.0368 µM in the experiment with A498 renal.

For `O=C(O)CN(CCN(CC(=O)O)CC(=O)O)CC(=O)O.[Cu+2].[Na+]`, the GI50 in the experiment on SF-295 CNS was 22.3 µM; in the experiment on ACHN renal, greater than 100 µM; in the experiment with UACC-257 melanoma, greater than 100 µM; in the experiment with A549 NSCLC, greater than 100 µM; with MDA-MB-435, greater than 100 µM; with UACC-62 melanoma, greater than 100 µM. Besides, the GI50 in the experiment with SK-MEL-28 melanoma, in the experiment on A498 renal and in the experiment on COLO 205 colon was greater than 100 µM throughout. Also, the TGI is 63.3 µM with SF-295 CNS; greater than 100 µM in the experiment on ACHN renal; greater than 100 µM in the experiment with UACC-257 melanoma; greater than 100 µM in the experiment with A549 NSCLC; greater than 100 µM in the experiment on MDA-MB-435; greater than 100 µM in the experiment with UACC-62 melanoma. For the same molecule, the TGI with SK-MEL-28 melanoma, in the experiment with A498 renal and in the experiment with COLO 205 colon was greater than 100 µM in each case.

As for `CCN(CC)C(=O)Cc1[nH][nH]c(=O)c1C(=O)N(CC)CC`, the TGI in the experiment with SF-295 CNS, with ACHN renal, in the experiment with UACC-257 melanoma, with A549 NSCLC, with UACC-62 melanoma and with SR leukemia was greater than 100 µM in each case. In addition, the TGI in the experiment with SK-MEL-28 melanoma, in the experiment with A498 renal and with COLO 205 colon was greater than 100 µM throughout.

For `C=C(C)[C@@H]1CC[C@]2(C(=O)O)CC[C@]3(C)[C@H](CC[C@@H]4[C@@]5(C)CCC(N)C(C)(C)[C@@H]5CC[C@]43C)[C@@H]12` (stereo not given in full), the results for the GI50 in the experiment with ACHN renal, in the experiment with MDA-MB-435 and in the experiment with UACC-62 melanoma were 2.2 µM, 1.75 µM and 1.92 µM, respectively. For the same molecule, the TGI with ACHN renal turned out to be 5.32 µM; in the experiment on MDA-MB-435 it was 3.32 µM; with UACC-62 melanoma, 3.55 µM.

Consider `CC1=C(\C=C/C(C)=C/C=C/C(C)=C/C=C/C=C(C)\C=C\C=C(C)/C=C/C2=C(C)CCCC2(C)C)C(C)(C)CCC1`, for which the TGI with SF-295 CNS, in the experiment with ACHN renal, with UACC-257 melanoma, in the experiment with MDA-MB-435, in the experiment on UACC-62 melanoma and in the experiment on SK-MEL-28 melanoma was greater than 100 µM in each case. The TGI in the experiment on A498 renal and with COLO 205 colon was greater than 100 µM each time.

On to `CC1OC(O[C@@H]2C=C3CC[C@@H]4[C@H](CC[C@]5(C)[C@@H](c6ccc(=O)oc6)CC[C@]45O)[C@@]3(C)CC2)C(O)C(O)C1O` (stereo not given in full), for which the TGI was 0.003 µM and 0.000407 µM in the experiment on SF-295 CNS; 0.003 µM and 0.000431 µM with ACHN renal; 0.0197 µM and 0.04 µM in the experiment with UACC-257 melanoma; 0.013 µM with MDA-MB-435; 0.003 µM in the experiment with UACC-62 melanoma; 0.00115 µM in the experiment with SR leukemia. For the same molecule, the TGI in the experiment with COLO 205 colon is 0.0208 µM and 0.0477 µM. In addition, the GI50 was 0.00478 µM in the experiment with ACHN renal; 0.000482 µM in the experiment on MDA-MB-435; 0.00216 µM with UACC-62 melanoma; 0.00281 µM in the experiment with SK-MEL-28 melanoma; 0.00127 µM in the experiment with A498 renal.

For the molecule `C=C1C(=O)C23C(O)CC4C(C)(C)CCC(O)C4(C)C2CC(OC(C)=O)C1[C@H]3O` (stereo not given in full), the TGI in the experiment on SF-295 CNS is 21.6 µM; with ACHN renal, 8.94 µM; in the experiment with UACC-257 melanoma, 8.38 µM; in the experiment with A549 NSCLC, 13.7 µM; with MDA-MB-435, 21.4 µM; with SR leukemia, greater than 41.1 µM. The TGI in the experiment with SK-MEL-28 melanoma worked out at 8.19 µM; with A498 renal, 30.9 µM; in the experiment with COLO 205 colon, 5.3 µM.

As for `COc1ccc([C@@H]2[C@@H](Cl)C(=O)N2c2cc(OC)c(OC)c(OC)c2)cc1C`, the GI50 in the experiment on SF-295 CNS was 0.0501 µM; with ACHN renal it was 0.121 µM; with UACC-257 melanoma, 15.7 µM; in the experiment on A549 NSCLC, 0.273 µM; with UACC-62 melanoma, 0.0607 µM; in the experiment with SR leukemia, 0.0397 µM. The GI50 in the experiment with SK-MEL-28 melanoma was 11 µM; with A498 renal, 0.0335 µM; in the experiment with COLO 205 colon, 0.0386 µM. Further, the TGI was 39.7 µM with SF-295 CNS; 30.3 µM in the experiment on ACHN renal; 97.3 µM in the experiment on UACC-257 melanoma; greater than 100 µM in the experiment on A549 NSCLC; 41.1 µM with UACC-62 melanoma; 54.4 µM in the experiment with SR leukemia. Also, the TGI was greater than 100 µM in the experiment with SK-MEL-28 melanoma, 0.314 µM in the experiment with A498 renal and 0.159 µM with COLO 205 colon.

As to `NP1(Oc2ccc(F)cc2)=NP(N)(Oc2ccc(F)cc2)=NP(Oc2ccc(F)cc2)(Oc2ccc(F)cc2)=N1` (stereo not given), the TGI with SF-295 CNS was determined as 15.4 µM; in the experiment with ACHN renal, 12.1 µM; with UACC-257 melanoma, 24.7 µM; with A549 NSCLC, 14.6 µM; in the experiment with MDA-MB-435 it was 19.3 µM; with SR leukemia, 15.6 µM. The TGI is 25.2 µM in the experiment with SK-MEL-28 melanoma, 8.71 µM in the experiment with A498 renal and 19.4 µM in the experiment with COLO 205 colon.

As for `CN1C/C(=C\c2ccccc2)C2=NN(C(N)=S)[C@H](c3ccccc3)[C@@H]2C1`, the TGI in the experiment on SF-295 CNS, in the experiment on ACHN renal, in the experiment on UACC-257 melanoma, with A549 NSCLC, in the experiment with UACC-62 melanoma and with SR leukemia was greater than 100 µM in each case. The TGI in the experiment on SK-MEL-28 melanoma, with A498 renal and in the experiment on COLO 205 colon was greater than 100 µM each time.

For `COc1cc2c(c3oc4c(O)cccc4c(=O)c13)CC(C(C)(O)CCl)O2` (stereo not given), the TGI with SF-295 CNS is 24.1 µM; in the experiment on ACHN renal it was 1.87 µM; in the experiment with UACC-257 melanoma, 6.79 µM; in the experiment on A549 NSCLC it was 13.6 µM; with MDA-MB-435, 1.55 µM; in the experiment on UACC-62 melanoma, 2.3 µM. Also, the TGI was 3.74 µM in the experiment with SK-MEL-28 melanoma, 37.3 µM in the experiment with A498 renal and 1.85 µM with COLO 205 colon.
